Experimental data reported in ChEMBL document CHEMBL1201862, “PubChem BioAssay data set” (2004).
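In this assay, cells in 96-well plates receive the compound at five concentrations for 48 hours. Endpoints are linearly interpolated between the surrounding concentrations. At the GI50, growth is halved.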 The source made the active and inactive calls. No stated cut-off is given here; in the data, active = GI50 up to about 1.1 µM and inactive = higher.

How the values were obtained:
Test in all cases: NCI-60 cell line screen, 48 h
[1] = system: UACC-62
[2] = system: NCI/ADR-RES
[3] = system: UACC-257
[4] = system: MCF7
[5] = system: HCT-116
[6] = system: RXF 393
[7] = system: MOLT-4
[8] = system: Malme-3M
[9] = system: MDA-MB-231
[10] = system: SK-MEL-28
[11] = system: SW-620
[12] = system: HT-29
[13] = system: HOP-62
[14] = system: SN12C
[15] = system: OVCAR-3
[16] = system: UO-31
[17] = system: A498
[18] = system: MDA-N

Measured: GI50

COc1cccc(/C=N/NC(=O)CSCC(=O)N/N=C/c2cccc(OC)c2OC)c1OC
inactive: [1] > 100 µM | [2] > 100 µM | [3] > 100 µM | [4] > 100 µM | [5] > 100 µM | [6] > 100 µM | [7] > 100 µM | [8] > 100 µM | [9] > 100 µM | [10] > 100 µM | [11] > 100 µM | [12] > 100 µM | [13] > 100 µM | [14] > 100 µM | [15] > 100 µM | [16] > 100 µM | [17] 51.2 µM

CC(=O)/N=C1/N(/C=C2\C(=O)Oc3ccccc3C2=O)C(=O)/C(=C/c2ccc(Cl)cc2Cl)N1C
inactive: [1] 26.2 µM | [2] > 100 µM | [3] > 100 µM | [4] > 100 µM | [5] 81.1 µM | [6] > 100 µM | [7] 40.7 µM | [8] > 100 µM | [9] > 100 µM | [10] 73.8 µM | [11] 50.6 µM | [12] > 100 µM | [13] 48.3 µM | [14] > 100 µM | [15] 59.2 µM | [17] 19.2 µM

CC1CC(=O)Nc2ccc(Cl)cc2N1C(=O)CN1CCC(CCCCN(C)C)CC1 (centres undefined)
inactive: [1] > 100 µM | [3] > 100 µM | [5] > 100 µM | [7] > 100 µM | [8] > 100 µM | [10] > 100 µM | [11] > 100 µM | [12] > 100 µM | [13] > 100 µM | [14] > 100 µM | [15] > 100 µM | [16] > 100 µM | [17] > 100 µM

COC(=O)c1sc2nc(Nc3ccccc3)/c(=N\c3ccccc3)sc2c1C
inactive: [1] 35.6 µM | [18] 66.8 µM | [2] 80.5 µM | [3] > 100 µM | [5] 51.8 µM | [6] 24.3 µM | [7] > 100 µM | [8] > 100 µM | [9] > 100 µM | [10] > 100 µM | [11] > 100 µM | [12] > 100 µM | [13] 49.8 µM | [14] 92.9 µM | [16] > 100 µM | [17] 53.7 µM

Fc1ccc2c3c([nH]c2c1)CCNC3
inactive: [1] > 100 µM | [2] > 100 µM | [3] > 100 µM | [4] > 100 µM | [5] > 100 µM | [6] > 100 µM | [7] > 100 µM | [8] > 100 µM | [9] > 100 µM | [10] > 100 µM | [11] > 100 µM | [12] > 100 µM | [13] > 100 µM | [14] > 100 µM | [16] 31.8 µM | [17] 20.4 µM

O=C1c2ccc3c4ccc5c6c(ccc(c7ccc(c2c37)C(=O)N1CCN1CCCCC1)c64)C(=O)N(CCN1CCCCC1)C5=O
inactive: [1] > 100 µM | [18] > 100 µM | [2] > 100 µM | [3] > 100 µM | [4] > 100 µM | [5] > 100 µM | [6] > 100 µM | [7] > 100 µM | [10] > 100 µM | [11] > 100 µM | [12] > 100 µM | [13] > 100 µM | [14] > 100 µM | [15] > 100 µM | [16] > 100 µM | [17] > 100 µM
